Measured values as given in patent US8114843B2, “Photoreactive regulator of protein function and methods of use thereof” (The Regents of the University of California, priority 2005, dated 2012).

Columns and labels:
Purkinje neurons = experiment: Loose-patch extracellular recording in cerebellar slices; assay type: cell-based, rat; conditions: 200 μM for 10 minutes; full-field 360 nm light; n=5
Method: Brain Slice Preparation. Parasagittal cerebellar slices were prepared using standard techniques approved by the UCLA Animal Care Committee. […] PAL attachment. […] For cerebellar slices, neuronal cell bodies were visualized using an upright microscope with a 40× water immersion lens and equipped with an infrared-DIC enhancement. Loose-patch extracellular recordings were performed using an Axopatch 200B amplifier (Axon Instruments). Electrophysiological recordings were filtered at 1 KHz and digitized at 2-4 KHz. Pipettes were typically 1.4-2.0 MΩ for recordings from PNs and 3.0-3.5 MΩ for interneurons and filled with aCSF. […] All recordings were performed at room temperature. […] Excitation filters were changed using a lambda 10-2 filter changer (Sutter Instruments) controlled via pCLAMP software.

[1] = tested on: voltage-gated outward current (endogenous K+ channels) in cultured hippocampal neurons; experiment: Photocontrol of K+ current in cultured hippocampal neurons; assay type: cell-based, rat; conditions: 200 μM, 15 min in the dark
Method: Hippocampal neurons were prepared from neonatal Sprague-Dawley rats according to standard procedures (Goslin) and grown on poly-L-lysine coated coverslips in MEM supplemented with 5% fetal bovine serum, B27 (Invitrogen), glutamine and serum extender (BD Biosciences). Animal care and experimental protocols were approved by the UC Berkeley Animal Care and Use Committee. Recordings were performed 9-16 days after plating. The Shaker construct also contains an N-terminal deletion (Δ6-46) to minimize fast inactivation.
(§1) PAL attachment. HEK293 and hippocampal cells were rinsed in extracellular solution containing in mM: 138 NaCl, 1.5 KCl, 1.2 MgCl2, 2.5 CaCl2, 5 HEPES, 10 glucose and incubated at 37° C. in the dark with 200-250 μM PAL for 15 minutes. For slices, AAQ was diluted to 200 μM in aCSF and treatment was performed in the dark at room temperature for 10 minutes.
Electrophysiological recording. Recordings from HEK293 and hippocampal neurons were made in the whole-cell patch clamp configuration using a PC-501A amplifier (Warner Instruments). Pulse protocols and measurements were carried out with pCLAMP and a Digidata 1322 interface (Axon Instruments). For voltage-clamp experiment, cells were held at −70 mV. Data was recorded at 20 kHz and filtered at 2 kHz. […]

[2] = target: T1, Shaker channel with engineered cysteine (E422C) (Drosophila melanogaster, UniProt P08510, DEL6-46/E422C); experiment: PAL photoswitching, whole-cell patch clamp in HEK293 cells; assay type: cell-based; conditions: n=6
T1 construct: expressed in transfected cells; host or cells: HEK293
Method: (§2) Cell culture and transfection. HEK293 cells were grown in DMEM containing 5% fetal bovine serum, at 37° C., 7% CO2. For electrophysiology, cells were plated at 12×10^5 cells/cm^2 on poly-L-lysine coated coverslips and transfected using the calcium phosphate method. Recordings were performed 24-36 hours after transfection.
as §1
(§3) Electrophysiological recording. Recordings from HEK293 and hippocampal neurons were made in the whole-cell patch clamp configuration using a PC-501A amplifier (Warner Instruments). Pulse protocols and measurements were carried out with pCLAMP and a Digidata 1322 interface (Axon Instruments). For voltage-clamp experiment, cells were held at −70 mV. Data was recorded at 20 kHz and filtered at 2 kHz. Recording pipettes with 2.5-4 MΩ resistance were filled with intracellular solution containing in mM: 10 NaCl, 135 K-gluconate, 10 HEPES, 2 MgCl2, 2 MgATP, 1 EGTA, pH 7.4.
(§4) Illumination was provided using a xenon lamp (Sutter Instruments) with narrow band pass filters (380 BP10 for UV and 500 BP5 for visible light respectively). Excitation filters were changed using a lambda 10-2 filter changer (Sutter Instruments) controlled via pCLAMP software.
(§5) Percent photoswitching was defined as the difference between current in UV and visible light divided by current in UV. All data shown in bar graphs are averages±standard error of the mean.

wild-type Shaker (E422) = target: T2, wild-type Shaker (E422) (Drosophila melanogaster, UniProt P08510, DEL6-46); experiment: as above; assay type: cell-based; conditions: n=6
T2 construct: expressed in transfected cells; host or cells: HEK293
Method: as §2, §1, §3, §4, §5

[3] = tested on: cultured hippocampal neurons; experiment: Live/Dead assay after PAL treatment; assay type: cell-based; conditions: 200 μM
Excerpt: Live/Dead assay. After PAL treatment, hippocampal neurons were processed for the live dead assay (Molecular Probes) according to the manufacturer's instructions. Cells were counted in 4-8 fields for each treatment condition.

T1 sequence (P08510 other isoform, or with tags, fused parts or gaps DEL6-46/E422C): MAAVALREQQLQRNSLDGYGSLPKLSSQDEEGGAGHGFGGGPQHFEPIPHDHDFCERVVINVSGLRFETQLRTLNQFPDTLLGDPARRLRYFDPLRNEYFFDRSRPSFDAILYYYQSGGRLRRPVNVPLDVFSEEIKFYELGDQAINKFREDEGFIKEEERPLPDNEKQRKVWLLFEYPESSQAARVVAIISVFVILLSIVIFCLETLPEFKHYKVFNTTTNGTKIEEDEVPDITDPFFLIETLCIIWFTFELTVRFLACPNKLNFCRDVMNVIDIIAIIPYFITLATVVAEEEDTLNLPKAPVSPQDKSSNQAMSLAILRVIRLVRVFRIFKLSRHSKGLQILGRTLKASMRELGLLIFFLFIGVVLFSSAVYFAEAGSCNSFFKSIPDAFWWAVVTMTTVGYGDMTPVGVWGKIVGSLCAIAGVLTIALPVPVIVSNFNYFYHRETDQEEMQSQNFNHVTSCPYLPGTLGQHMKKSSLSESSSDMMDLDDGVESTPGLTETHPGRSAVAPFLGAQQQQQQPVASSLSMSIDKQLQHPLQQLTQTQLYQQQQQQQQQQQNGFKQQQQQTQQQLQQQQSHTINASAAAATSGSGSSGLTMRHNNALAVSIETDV
T2 sequence (P08510 other isoform, or with tags, fused parts or gaps DEL6-46): as the sequence (P08510 other isoform, or with tags, fused parts or gaps DEL6-46/E422C) above, with C381E counted along it

C=CC(=O)Nc1ccc(/N=N/c2ccc(NC(=O)C[N+](CC)(CC)CC)cc2)cc1 [AAQ]
increase in firing frequency (Purkinje neurons): 42±12%
percent of the outward current that could be photoswitched [1]: 63±8%
fraction of current that could be photoswitched [2]: 39±1%
fraction of current that could be photoswitched (wild-type Shaker (E422)): 48±2%
death of neurons ([3]; 15 min): ~10%
loss of neurons ([3]; 60 min): ~15%
